Experimental data reported in US8722338B2, “Modulation of ABCG2-mediated urate transport to treat hyperuricemia and gout” (The Johns Hopkins University, priority 2009, dated 2014).
Entries after “also recorded” stand apart in the source; their conditions may differ.

Legend:
human ABCG2 = human ABCG2 (Homo sapiens, UniProt Q9UNQ0); conditions: 5 μM FTC; oocytes injected with ABCG2 WT mRNA; C-14 urate
Experimental: Oocytes were removed from female pigmented Xenopus laevis (Xenopus 1 Inc.) and de-folliculated using collagenase A (Roche) in Ca^2+-free OR-2 ringer solution. Stage V-VI oocytes were selected and injected (Nanoinject II, Drummond Scientific) with 50 nL of either mRNA or H2O (as a control). All experiments were performed on the fourth day after injection. Oocytes after injection were cultured in a modified L-15 media (OR-3) and kept at 15-20° C. mRNA was prepared using the SP6 mMessage mMachine (Ambion Inc.) according to the manufactures protocol.
Radiolabeled C-14 uric acid (American Radio-labeled Chemicals) was dissolved in a stock solution of 2 mM NaOH with a final urate concentration of 2 mM (either 2 mM hot-radio labeled urate or 1 mM hot and 1 mM cold urate). For oocyte transport experiments, the radio labeled C-14 urate was included at various concentrations in ND96 ringers solution (in mM: 96 NaCl, 2 KCl, 2 MgCl2, 5 Hepes, 1.8 CaCl2, pH 7.5, and 5 mM glucose for overnight incubation experiments).
For accumulation studies, oocytes were incubated either for 1 or 2 h at room temperature in 50 μM C-14 urate or overnight in 500 μM C-14 urate at 15° C. After incubation the oocytes were washed in ice-cold ND96 solution 3-5 times to remove any superficial, residual C-14 urate from the oocytes. Oocytes were then pooled for scintillation counting. […]

endogenous ABCG2 = molecular target: T1, endogenous ABCG2 (Sus scrofa, UniProt Q8MIB3); assay: Urate accumulation in native LLC-PK1 renal proximal tubule cells; assay type: cell-based, porcine; conditions: 5 μM FTC; 120 min; polarized LLC-PK1 cells; 500 μM cold urate and 25 μM hot urate
T1 construct: endogenous in cells; host or cells: LLC-PK1 porcine renal epithelial cells
T1 sequence (Q8MIB3 1-656): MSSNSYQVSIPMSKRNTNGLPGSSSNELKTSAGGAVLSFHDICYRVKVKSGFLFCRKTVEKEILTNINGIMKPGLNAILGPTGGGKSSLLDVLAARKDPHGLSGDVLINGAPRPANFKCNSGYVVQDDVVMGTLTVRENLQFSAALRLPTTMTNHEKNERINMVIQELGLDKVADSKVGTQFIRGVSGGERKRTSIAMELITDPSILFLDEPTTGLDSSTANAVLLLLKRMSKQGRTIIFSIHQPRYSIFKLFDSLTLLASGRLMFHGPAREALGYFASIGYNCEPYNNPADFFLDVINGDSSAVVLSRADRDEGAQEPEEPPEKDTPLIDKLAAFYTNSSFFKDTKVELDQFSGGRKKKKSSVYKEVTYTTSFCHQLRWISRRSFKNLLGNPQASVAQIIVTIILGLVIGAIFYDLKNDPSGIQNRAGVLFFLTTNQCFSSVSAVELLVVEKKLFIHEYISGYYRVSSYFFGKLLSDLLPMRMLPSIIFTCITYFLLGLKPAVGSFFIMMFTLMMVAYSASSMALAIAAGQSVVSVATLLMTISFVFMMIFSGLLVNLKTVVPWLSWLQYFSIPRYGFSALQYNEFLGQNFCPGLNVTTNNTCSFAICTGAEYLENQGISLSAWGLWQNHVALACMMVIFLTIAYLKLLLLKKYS
Experimental: LLC-PK1 porcine renal epithelial cells were cultured in Dulbecco's Modified Eagle medium (DMEM) supplemented with 10% FBS. LLC-PK1 cells were seeded at a high density into a 6-well plate and accumulation experiments were performed after the cells polarized. The cells were incubated in DMEM containing 500 μM cold urate and 25 μM hot urate with or without 5 μM FTC (US Biologicals); the incubation lasted 120 min. The cells were then washed four times with ice-cold DMEM and lysed with 500 μL of 1M NaOH. The lysate was collected and placed in a scintillation tubule along with 5 mL scintillation fluid and counted.

Sequence of human ABCG2 (Q9UNQ0 whole entry): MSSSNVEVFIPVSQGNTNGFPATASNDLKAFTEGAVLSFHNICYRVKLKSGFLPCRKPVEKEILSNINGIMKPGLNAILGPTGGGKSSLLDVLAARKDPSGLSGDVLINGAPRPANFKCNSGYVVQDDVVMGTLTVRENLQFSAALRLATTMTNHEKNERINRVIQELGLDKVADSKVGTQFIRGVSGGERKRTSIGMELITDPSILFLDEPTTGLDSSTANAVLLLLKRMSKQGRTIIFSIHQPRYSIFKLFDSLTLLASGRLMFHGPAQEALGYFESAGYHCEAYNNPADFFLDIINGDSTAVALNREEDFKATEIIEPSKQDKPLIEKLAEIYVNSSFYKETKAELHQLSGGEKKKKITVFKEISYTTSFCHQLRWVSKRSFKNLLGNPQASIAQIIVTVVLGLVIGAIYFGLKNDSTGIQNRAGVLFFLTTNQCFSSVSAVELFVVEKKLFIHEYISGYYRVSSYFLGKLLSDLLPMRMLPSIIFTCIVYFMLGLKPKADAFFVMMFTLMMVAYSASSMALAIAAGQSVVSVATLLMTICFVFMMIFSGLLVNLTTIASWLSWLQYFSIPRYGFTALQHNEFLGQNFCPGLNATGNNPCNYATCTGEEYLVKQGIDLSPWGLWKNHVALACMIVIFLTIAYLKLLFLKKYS

Structure (SMILES): COc1ccc2c3c([nH]c2c1)[C@H](C=C(C)C)N1C(=O)[C@@H]2CCCN2C(=O)[C@@H]1C3 [FTC, fumitremorgin C]
- reduced urate accumulation in ABCG2-expressing oocytes in the presence of inhibitor (human ABCG2): absent
- urate export / intracellular urate accumulation compared with non-treated control cells (endogenous ABCG2): inhibits urate export; also recorded: significantly higher intracellular urate accumulation
